Test results as given in patent US20110218100A1 (priority 2005, published 2011).

Columns and labels:
Fusarium graminearum = format: in vivo; conditions: barley, curative spray, 125 g/ha of each active compound, evaluation 7 days after inoculation
[1] = tested on: Erysiphe graminis f.sp. tritici; assay: Erysiphe test (wheat)/curative; format: in vivo; conditions: curative spray, 125 g/ha of each active compound, evaluation 8 days after inoculation
Description: (§1) Solvent: 50 parts by weight of N,N-dimethylacetamide Emulsifier: 1 part by weight of alkylaryl polyglycol ether
(§2) To produce a suitable preparation of active compound, 1 part by weight of active compound is mixed with the stated amounts of solvent and emulsifier, and the concentrate is diluted with water to the desired concentration.
To test for curative activity, young plants are sprayed with spores of Erysiphe graminis f.sp. tritici. 48 hours after the inoculation, the plants are sprayed with the preparation of active compound at the stated application rate. The plants are placed in a greenhouse at a temperature of about 20° C. and a relative atmospheric humidity of about 80% to promote the development of mildew pustules. Evaluation is carried out 8 days after the inoculation. What is determined is the efficacy in %. 0% means an efficacy which corresponds to that of the control, whereas an efficacy of 100% means that no infection is observed.

Penicillium brevicaule = Penicillium brevicaule test (in vitro)/microtest; format: cell-based; conditions: 4 days incubation, optical density
Description: The microtest was performed in liquid medium with potato-dextrose broth (PDB) using microtitre plates.
The active compound is applied as the technical active substance dissolved in aceton.
A spore suspension of Penicillium brevicaule was used for inoculation. After 4 days of incubation by darkness under shaking (10 Hrz), the optical density in each cavity was evaluated with the aid of a microtitre plate reader.
0% means an efficacy which corresponds to that of the control, while an efficacy of 100% means that no fungal growth is observed.

Pyrenophora teres = Pyrenophora teres (barley) test/curative; format: in vivo; conditions: curative spray, 50 g/ha of each active compound, evaluation 8 days after inoculation
Description: as §1
as §2, with “desired concentration or the active compound or a combination of active compounds in a commercially available formulation is diluted with water to the desired” for “desired”
To test for curative activity, young plants are sprayed with a conidia suspension of Pyrenophora teres. The plants remain for 48 hours in an incubation cabinet at 20° C. and a relative atmospheric humidity of 100% and are then sprayed with the preparation of active compound at the stated rate of application.
The plants are placed in a greenhouse at a temperature of approximately 20° C. and a relative atmospheric humidity of approximately 80%.
The test is evaluated 8 days after the inoculation.

## Cc1nn(C)c(F)c1C(=O)Nc1ccccc1C(C)CC(C)C (centres unmarked) [(I-2), N-[2-(1,3-dimethylbutyl)phenyl]-5-fluoro-1,3-dimethyl-1H-pyrazole-4-carboxamide]
Fusarium graminearum
  Efficacy in % found: 42%
[1]
  Efficacy in % found: 0%
Penicillium brevicaule; 0.03 ppm
  Efficacy in %: 16%
Pyrenophora teres
  Efficacy in % (Act = actual efficacy): 22%

## OC(Cc1ccccc1Cl)(Cn1nc[nH]c1=S)C1(Cl)CC1 (centres unmarked) [(II-15), prothioconazole]
Fusarium graminearum
  Efficacy in % found: 58%
[1]
  Efficacy in % found: 33%
Pyrenophora teres
  Efficacy in % (Act = actual efficacy): 22%

## CON=C(C(=O)OC)c1ccccc1CON=C(C)c1cccc(C(F)(F)F)c1 [(III-4), trifloxystrobin]
Penicillium brevicaule; 0.003 ppm
  Efficacy in %: 1%

## CC(C)C1CCC(Cc2ccc(Cl)cc2)C1(O)Cn1cncn1 (centres unmarked) [(II-18), ipconazole]
Penicillium brevicaule; 0.003 ppm
  Efficacy in %: 8%

## CO/N=C(/C1=NOCCO1)c1ccccc1Oc1ncnc(Oc2ccccc2Cl)c1F [(III-2), fluoxastrobin]
Fusarium graminearum
  Efficacy in % found: 50%
[1]
  Efficacy in % found: 39%
Pyrenophora teres
  Efficacy in % (Act = actual efficacy): 22%

## CC(C)(C)C(O)(CCc1ccc(Cl)cc1)Cn1cncn1 (centres unmarked) [(II-17), tebuconazole]
Pyrenophora teres
  Efficacy in % (Act = actual efficacy): 22%

## Cn1cc(C(=O)Nc2ccc(F)cc2-c2ccc(Cl)c(Cl)c2)c(C(F)F)n1 [(I-23), N-(3′,4′-dichloro-5-fluoro-1,1′-biphenyl-2-yl)-3-(difluoromethyl)-1-methyl-1H-pyrazole-4-carboxamide]
Pyrenophora teres
  Efficacy in % (Act = actual efficacy): 22%
